Common to all, as to test: cell-based
The target of one assay is hNav1.7 (Homo sapiens, UniProt Q15858). In kind it is cell-based. As to conditions: IonWorks Quattro, […]. A general note: In patch-clamp work, channel activity is measured electrically.
For another assay, the target named is hNav1.3 (Homo sapiens, UniProt Q9NY46). The conditions noted are these: IonWorks Quattro, […], read-out: IWQ Use Nav1.3.
The target in another assay is hNav1.5 (Homo sapiens, UniProt Q14524). The conditions noted are these: IonWorks Quattro, […], read-out: IWQ Use Nav1.5.
Sequence of hNav1.5 (Q14524 whole entry, looked up): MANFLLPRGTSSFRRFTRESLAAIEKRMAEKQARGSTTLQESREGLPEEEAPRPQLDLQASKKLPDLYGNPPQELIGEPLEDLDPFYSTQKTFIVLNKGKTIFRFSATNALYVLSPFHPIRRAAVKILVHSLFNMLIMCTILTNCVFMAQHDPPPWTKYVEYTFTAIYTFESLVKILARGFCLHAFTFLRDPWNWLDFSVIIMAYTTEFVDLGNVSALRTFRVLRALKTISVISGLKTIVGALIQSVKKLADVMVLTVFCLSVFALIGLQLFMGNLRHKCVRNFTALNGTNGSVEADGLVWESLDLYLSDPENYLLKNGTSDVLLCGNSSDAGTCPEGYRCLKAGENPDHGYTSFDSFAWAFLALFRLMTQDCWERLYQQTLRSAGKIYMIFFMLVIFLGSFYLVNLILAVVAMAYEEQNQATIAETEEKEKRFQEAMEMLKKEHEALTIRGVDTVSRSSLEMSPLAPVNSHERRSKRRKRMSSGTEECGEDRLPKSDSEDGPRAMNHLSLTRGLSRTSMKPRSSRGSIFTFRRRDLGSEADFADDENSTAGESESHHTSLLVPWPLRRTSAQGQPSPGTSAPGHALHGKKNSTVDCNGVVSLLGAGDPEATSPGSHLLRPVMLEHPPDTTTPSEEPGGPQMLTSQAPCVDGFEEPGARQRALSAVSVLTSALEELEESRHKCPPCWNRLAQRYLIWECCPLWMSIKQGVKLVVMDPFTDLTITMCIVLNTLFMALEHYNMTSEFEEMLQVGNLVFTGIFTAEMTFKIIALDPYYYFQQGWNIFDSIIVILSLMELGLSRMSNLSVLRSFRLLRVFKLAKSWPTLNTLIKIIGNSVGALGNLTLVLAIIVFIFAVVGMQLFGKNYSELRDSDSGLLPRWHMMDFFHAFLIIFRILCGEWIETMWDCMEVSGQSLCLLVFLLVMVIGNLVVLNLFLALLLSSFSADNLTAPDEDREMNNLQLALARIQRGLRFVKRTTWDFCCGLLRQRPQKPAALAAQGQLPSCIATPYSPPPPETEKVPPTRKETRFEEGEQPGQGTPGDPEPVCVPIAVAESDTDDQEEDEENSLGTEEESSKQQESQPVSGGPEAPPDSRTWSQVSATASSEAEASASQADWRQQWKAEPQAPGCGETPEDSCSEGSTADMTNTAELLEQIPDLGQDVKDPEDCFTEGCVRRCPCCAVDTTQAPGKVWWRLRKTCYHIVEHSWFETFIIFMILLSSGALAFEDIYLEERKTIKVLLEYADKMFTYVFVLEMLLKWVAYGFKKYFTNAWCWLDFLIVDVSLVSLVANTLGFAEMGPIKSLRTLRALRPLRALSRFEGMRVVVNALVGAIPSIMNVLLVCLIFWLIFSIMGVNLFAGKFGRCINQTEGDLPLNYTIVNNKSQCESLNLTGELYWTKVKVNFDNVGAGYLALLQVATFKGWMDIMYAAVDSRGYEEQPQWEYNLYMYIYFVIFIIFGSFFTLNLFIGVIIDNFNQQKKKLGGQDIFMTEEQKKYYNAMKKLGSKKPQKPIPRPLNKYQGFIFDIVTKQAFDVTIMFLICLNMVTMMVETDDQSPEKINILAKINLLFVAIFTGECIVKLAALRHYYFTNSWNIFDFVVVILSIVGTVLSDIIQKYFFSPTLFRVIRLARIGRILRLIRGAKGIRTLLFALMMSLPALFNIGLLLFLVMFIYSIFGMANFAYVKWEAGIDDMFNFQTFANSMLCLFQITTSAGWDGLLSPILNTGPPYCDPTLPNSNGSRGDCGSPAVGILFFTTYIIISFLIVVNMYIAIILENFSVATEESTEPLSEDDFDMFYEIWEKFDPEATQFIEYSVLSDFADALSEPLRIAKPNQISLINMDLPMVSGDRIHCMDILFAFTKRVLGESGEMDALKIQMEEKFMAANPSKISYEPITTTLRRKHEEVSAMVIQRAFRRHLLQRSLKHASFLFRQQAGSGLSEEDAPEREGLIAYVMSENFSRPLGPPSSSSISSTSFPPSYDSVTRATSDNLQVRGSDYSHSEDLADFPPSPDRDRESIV
The mark [1] stands for this setting: use-dependent, read-out: IWQ Use Nav1.7.

SMILES strings stand for the structures. Where two headings read alike, the source gives them in different places. Positions of bridges follow the written chain, without caps; N, C: chain ends. Non-standard residues stand in square brackets, D forms with d. Residues, ends and D or L forms follow the SMILES beside them. Phe(4-COOH) = N[C@@H](Cc1ccc(C(=O)O)cc1)C(=O)O; Trp(1-Me) = Cn1cc(C[C@H](N)C(=O)O)c2ccccc21; 2Pal = N[C@@H](Cc1ccccn1)C(=O)O; Cha = N[C@@H](CC1CCCCC1)C(=O)O; Phg = N[C@H](C(=O)O)c1ccccc1

Sequence of hNav1.3 (Q9NY46 whole entry, looked up): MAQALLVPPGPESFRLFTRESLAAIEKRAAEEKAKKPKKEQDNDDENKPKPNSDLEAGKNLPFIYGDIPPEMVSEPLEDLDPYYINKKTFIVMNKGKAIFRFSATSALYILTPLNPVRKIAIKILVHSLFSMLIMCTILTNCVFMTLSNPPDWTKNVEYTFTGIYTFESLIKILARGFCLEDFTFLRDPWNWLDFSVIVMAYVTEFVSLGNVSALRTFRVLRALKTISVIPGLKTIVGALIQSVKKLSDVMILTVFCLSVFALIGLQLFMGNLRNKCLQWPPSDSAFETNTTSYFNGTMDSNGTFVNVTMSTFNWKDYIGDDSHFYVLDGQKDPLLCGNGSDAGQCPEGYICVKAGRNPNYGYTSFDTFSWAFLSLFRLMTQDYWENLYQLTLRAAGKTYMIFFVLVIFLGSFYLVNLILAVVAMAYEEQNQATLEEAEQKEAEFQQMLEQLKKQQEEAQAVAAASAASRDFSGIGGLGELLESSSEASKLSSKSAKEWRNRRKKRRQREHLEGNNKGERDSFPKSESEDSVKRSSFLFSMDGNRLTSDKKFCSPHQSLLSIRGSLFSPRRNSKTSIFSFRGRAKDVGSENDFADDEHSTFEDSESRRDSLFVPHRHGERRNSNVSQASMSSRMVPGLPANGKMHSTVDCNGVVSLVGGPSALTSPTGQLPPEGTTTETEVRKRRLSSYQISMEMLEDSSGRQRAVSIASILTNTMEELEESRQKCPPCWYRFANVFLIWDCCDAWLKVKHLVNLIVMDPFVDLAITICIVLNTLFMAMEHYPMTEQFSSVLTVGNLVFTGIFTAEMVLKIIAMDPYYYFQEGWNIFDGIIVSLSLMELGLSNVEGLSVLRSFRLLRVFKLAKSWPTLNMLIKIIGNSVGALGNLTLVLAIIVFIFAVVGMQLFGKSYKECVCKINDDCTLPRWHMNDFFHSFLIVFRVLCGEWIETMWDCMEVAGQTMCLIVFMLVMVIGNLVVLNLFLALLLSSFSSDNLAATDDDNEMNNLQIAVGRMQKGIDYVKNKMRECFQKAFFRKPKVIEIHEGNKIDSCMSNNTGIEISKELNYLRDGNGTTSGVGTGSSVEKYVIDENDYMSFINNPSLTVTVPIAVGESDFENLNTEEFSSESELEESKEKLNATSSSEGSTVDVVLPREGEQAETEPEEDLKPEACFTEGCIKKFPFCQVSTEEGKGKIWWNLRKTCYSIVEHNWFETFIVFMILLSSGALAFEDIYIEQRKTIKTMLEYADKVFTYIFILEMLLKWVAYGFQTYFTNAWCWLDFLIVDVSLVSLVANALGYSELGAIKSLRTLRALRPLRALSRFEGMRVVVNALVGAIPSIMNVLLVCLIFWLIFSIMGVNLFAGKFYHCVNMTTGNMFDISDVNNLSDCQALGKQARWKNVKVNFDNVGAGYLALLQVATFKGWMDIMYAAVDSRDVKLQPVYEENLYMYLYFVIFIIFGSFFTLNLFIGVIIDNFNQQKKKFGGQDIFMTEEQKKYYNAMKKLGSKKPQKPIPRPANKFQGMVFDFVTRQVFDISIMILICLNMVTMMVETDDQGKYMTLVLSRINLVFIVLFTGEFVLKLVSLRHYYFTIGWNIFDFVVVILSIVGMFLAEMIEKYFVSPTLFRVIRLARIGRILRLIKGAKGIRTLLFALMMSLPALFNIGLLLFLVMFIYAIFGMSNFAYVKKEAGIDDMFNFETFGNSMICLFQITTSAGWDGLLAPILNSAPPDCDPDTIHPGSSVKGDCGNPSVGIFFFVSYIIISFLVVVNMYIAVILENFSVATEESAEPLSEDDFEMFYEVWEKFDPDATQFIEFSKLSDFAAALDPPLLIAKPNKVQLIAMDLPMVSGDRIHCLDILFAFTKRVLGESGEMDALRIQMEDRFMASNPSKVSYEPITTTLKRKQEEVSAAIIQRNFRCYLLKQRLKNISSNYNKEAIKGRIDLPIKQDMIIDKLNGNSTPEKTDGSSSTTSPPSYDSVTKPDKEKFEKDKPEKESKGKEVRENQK

With `CC[C@H](C)[C@@H]1NC(=O)[C@@H]2CSSC[C@@H]3NC(=O)[C@H](C(C)C)NC(=O)[C@H](CC(C)C)NC(=O)[C@H](CC(N)=O)NC(=O)[C@@H]4CCCN4C(=O)[C@H](CCCNC(=N)N)NC(=O)[C@H](CSSC[C@H](NC(=O)[C@@H](N)CC(=O)O)C(=O)N[C@@H](CC(C)C)C(=O)NCC(=O)N[C@@H](Cc4ccccc4)C(=O)N[C@@H](CCSC)C(=O)N[C@@H](CCCNC(=N)N)C(=O)N[C@@H](CCCCN)C(=O)N2)NC(=O)[C@H](CSSC[C@@H](C(=O)N[C@@H](CCCCN)C(=O)N[C@@H](Cc2ccc(O)cc2)C(=O)N[C@@H](Cc2ccc(C(=O)O)cc2)C(=O)N[C@@H](Cc2ccccc2)C(N)=O)NC(=O)[C@H](Cc2c[nH]c4ccccc24)NC(=O)[C@H](CCCCN)NC(=O)[C@H](Cc2c[nH]cn2)NC(=O)[C@H]([C@@H](C)O)NC(=O)[C@H](CCCNC(=N)N)NC(=O)[C@H](CO)NC3=O)NC(=O)[C@H](CCCCN)NC(=O)[C@H](CC(=O)O)NC(=O)[C@H](CC(N)=O)NC(=O)[C@H](CC(=O)O)NC(=O)[C@@H]2CCCN2C1=O` [compound 403] (H-DCLGFMRKCIPDNDKCCRPNLVCSRTHKWCKY[Phe(4-COOH)]F-NH2; disulfide 2-17, 9-23, 16-30), the IC50 at hNav1.7 (Table 26, use, read-out: IWQ Use Nav1.7) was determined as 0.16 µM; on hNav1.3 (Table 26, use) it was 0.31 µM; on hNav1.5 (Table 26, use), 9.06 µM.
With `CC[C@H](C)[C@@H]1NC(=O)[C@@H]2CSSC[C@@H]3NC(=O)[C@H](C(C)C)NC(=O)[C@H](CC(C)C)NC(=O)[C@H](CC(N)=O)NC(=O)[C@@H]4CCCN4C(=O)[C@H](CCCNC(=N)N)NC(=O)[C@H](CSSC[C@H](NC(=O)[C@@H](N)CC(=O)O)C(=O)N[C@@H](CC(C)C)C(=O)NCC(=O)N[C@@H](Cc4ccccc4)C(=O)N[C@@H](CCSC)C(=O)N[C@@H](CCCNC(=N)N)C(=O)N[C@@H](CCCCN)C(=O)N2)NC(=O)[C@H](CSSC[C@@H](C(=O)N[C@@H](CCCCN)C(=O)N[C@@H](Cc2ccc(O)cc2)C(=O)N[C@H](C(=O)N[C@@H](CC2CCCCC2)C(N)=O)C(C)C)NC(=O)[C@H](Cc2c[nH]c4ccccc24)NC(=O)[C@H](CCCCN)NC(=O)[C@H](Cc2c[nH]cn2)NC(=O)[C@H]([C@@H](C)O)NC(=O)[C@H](CCCNC(=N)N)NC(=O)[C@H](CO)NC3=O)NC(=O)[C@H](CCCCN)NC(=O)[C@H](CC(=O)O)NC(=O)[C@H](CC(N)=O)NC(=O)[C@H](CC(=O)O)NC(=O)[C@@H]2CCCN2C1=O` [compound 405] (H-DCLGFMRKCIPDNDKCCRPNLVCSRTHKWCKYV[Cha]-NH2; disulfide 2-17, 9-23, 16-30), the IC50 on hNav1.7 (setting [1]) amounted to 0.02 µM; on hNav1.3 (use-dependent), 0.01 µM; on hNav1.5 (use-dependent), 5.53 µM.
For `CC[C@H](C)[C@@H]1NC(=O)[C@@H]2CSSC[C@@H]3NC(=O)[C@H](C(C)C)NC(=O)[C@H](CC(C)C)NC(=O)[C@H](CC(N)=O)NC(=O)[C@@H]4CCCN4C(=O)[C@H](CCCNC(=N)N)NC(=O)[C@H](CSSC[C@H](NC(=O)[C@@H](N)CC(=O)O)C(=O)N[C@@H](CC(C)C)C(=O)NCC(=O)N[C@@H](Cc4ccccc4)C(=O)N[C@@H](CCSC)C(=O)N[C@@H](CCCNC(=N)N)C(=O)N[C@@H](CCCCN)C(=O)N2)NC(=O)[C@H](CSSC[C@@H](C(=O)N[C@@H](CCCCN)C(=O)N[C@@H](Cc2ccc(O)cc2)C(=O)N[C@H](C(=O)N[C@H](C(N)=O)c2ccccc2)C(C)C)NC(=O)[C@H](Cc2c[nH]c4ccccc24)NC(=O)[C@H](CCCCN)NC(=O)[C@H](Cc2c[nH]cn2)NC(=O)[C@H]([C@@H](C)O)NC(=O)[C@H](CCCNC(=N)N)NC(=O)[C@H](CO)NC3=O)NC(=O)[C@H](CCCCN)NC(=O)[C@H](CC(=O)O)NC(=O)[C@H](CC(N)=O)NC(=O)[C@H](CC(=O)O)NC(=O)[C@@H]2CCCN2C1=O` [compound 406] (H-DCLGFMRKCIPDNDKCCRPNLVCSRTHKWCKYV[Phg]-NH2; disulfide 2-17, 9-23, 16-30), in that order: 0.04 µM, 0.02 µM and 5.95 µM.
For `CC[C@H](C)[C@@H]1NC(=O)[C@@H]2CSSC[C@@H]3NC(=O)[C@H](C(C)C)NC(=O)[C@H](CC(C)C)NC(=O)[C@H](CC(N)=O)NC(=O)[C@@H]4CCCN4C(=O)[C@H](CCCNC(=N)N)NC(=O)[C@H](CSSC[C@H](NC(=O)[C@@H](N)CC(=O)O)C(=O)N[C@@H](CC(C)C)C(=O)NCC(=O)N[C@@H](Cc4ccccc4)C(=O)N[C@@H](CCSC)C(=O)N[C@@H](CCCNC(=N)N)C(=O)N[C@@H](CCCCN)C(=O)N2)NC(=O)[C@H](CSSC[C@@H](C(=O)N[C@@H](CCCCN)C(=O)N[C@@H](Cc2ccc(O)cc2)C(=O)N[C@H](C(=O)N(C)[C@@H](Cc2ccccc2)C(N)=O)C(C)C)NC(=O)[C@H](Cc2c[nH]c4ccccc24)NC(=O)[C@H](CCCCN)NC(=O)[C@H](Cc2c[nH]cn2)NC(=O)[C@H]([C@@H](C)O)NC(=O)[C@H](CCCNC(=N)N)NC(=O)[C@H](CO)NC3=O)NC(=O)[C@H](CCCCN)NC(=O)[C@H](CC(=O)O)NC(=O)[C@H](CC(N)=O)NC(=O)[C@H](CC(=O)O)NC(=O)[C@@H]2CCCN2C1=O` [compound 408], in that order: 10 µM, 4.56 µM and 18.8 µM.
For `CC[C@H](C)[C@@H]1NC(=O)[C@@H]2CSSC[C@@H]3NC(=O)[C@H](C(C)C)NC(=O)[C@H](CC(C)C)NC(=O)[C@H](CC(N)=O)NC(=O)[C@@H]4CCCN4C(=O)[C@H](CCCNC(=N)N)NC(=O)[C@H](CSSC[C@H](NC(=O)[C@@H](N)CC(=O)O)C(=O)N[C@@H](CC(C)C)C(=O)NCC(=O)N[C@@H](Cc4ccccc4)C(=O)N[C@@H](CCSC)C(=O)N[C@@H](CCCNC(=N)N)C(=O)N[C@@H](CCCCN)C(=O)N2)NC(=O)[C@H](CSSC[C@@H](C(=O)N[C@@H](CCCCN)C(=O)N[C@@H](Cc2ccc(O)cc2)C(=O)N[C@H](C(=O)N[C@@H](Cc2cn(C)c4ccccc24)C(N)=O)C(C)C)NC(=O)[C@H](Cc2c[nH]c4ccccc24)NC(=O)[C@H](CCCCN)NC(=O)[C@H](Cc2c[nH]cn2)NC(=O)[C@H]([C@@H](C)O)NC(=O)[C@H](CCCNC(=N)N)NC(=O)[C@H](CO)NC3=O)NC(=O)[C@H](CCCCN)NC(=O)[C@H](CC(=O)O)NC(=O)[C@H](CC(N)=O)NC(=O)[C@H](CC(=O)O)NC(=O)[C@@H]2CCCN2C1=O` [compound 409] (H-DCLGFMRKCIPDNDKCCRPNLVCSRTHKWCKYV[Trp(1-Me)]-NH2; disulfide 2-17, 9-23, 16-30), in that order: 0.09 µM, 0.07 µM and 5.61 µM.
For `CC[C@H](C)[C@@H]1NC(=O)[C@@H]2CSSC[C@@H]3NC(=O)[C@H](C(C)C)NC(=O)[C@H](CC(C)C)NC(=O)[C@H](CC(N)=O)NC(=O)[C@@H]4CCCN4C(=O)[C@H](CCCNC(=N)N)NC(=O)[C@H](CSSC[C@H](NC(=O)[C@@H](N)CC(=O)O)C(=O)N[C@@H](CC(C)C)C(=O)NCC(=O)N[C@@H](Cc4ccccc4)C(=O)N[C@@H](CCSC)C(=O)N[C@@H](CCCNC(=N)N)C(=O)N[C@@H](CCCCN)C(=O)N2)NC(=O)[C@H](CSSC[C@@H](C(=O)N[C@@H](CCCCN)C(=O)N[C@@H](Cc2ccc(O)cc2)C(=O)N[C@H](C(=O)N[C@@H](Cc2ccc(C(=O)O)cc2)C(N)=O)C(C)C)NC(=O)[C@H](Cc2c[nH]c4ccccc24)NC(=O)[C@H](CCCCN)NC(=O)[C@H](Cc2c[nH]cn2)NC(=O)[C@H]([C@@H](C)O)NC(=O)[C@H](CCCNC(=N)N)NC(=O)[C@H](CO)NC3=O)NC(=O)[C@H](CCCCN)NC(=O)[C@H](CC(=O)O)NC(=O)[C@H](CC(N)=O)NC(=O)[C@H](CC(=O)O)NC(=O)[C@@H]2CCCN2C1=O` [compound 410], the results for the IC50 on hNav1.7 (setting [1]), at hNav1.3 (use-dependent) and on hNav1.5 (use-dependent) were 9.19 µM, 6.31 µM and 7.11 µM, respectively.
Taken in the same sequence, the figures for `CC[C@H](C)[C@@H]1NC(=O)[C@@H]2CSSC[C@@H]3NC(=O)[C@H](C(C)C)NC(=O)[C@H](CC(C)C)NC(=O)[C@H](CC(N)=O)NC(=O)[C@@H]4CCCN4C(=O)[C@H](CCCNC(=N)N)NC(=O)[C@H](CSSC[C@H](NC(=O)[C@@H](N)CC(=O)O)C(=O)N[C@@H](CC(C)C)C(=O)NCC(=O)N[C@@H](Cc4ccccc4)C(=O)N[C@@H](CCSC)C(=O)N[C@@H](CCCNC(=N)N)C(=O)N[C@@H](CCCCN)C(=O)N2)NC(=O)[C@H](CSSC[C@@H](C(=O)N[C@@H](CCCCN)C(=O)N[C@@H](Cc2ccc(O)cc2)C(=O)N[C@H](C(=O)N[C@@H](Cc2ccccn2)C(N)=O)C(C)C)NC(=O)[C@H](Cc2c[nH]c4ccccc24)NC(=O)[C@H](CCCCN)NC(=O)[C@H](Cc2c[nH]cn2)NC(=O)[C@H]([C@@H](C)O)NC(=O)[C@H](CCCNC(=N)N)NC(=O)[C@H](CO)NC3=O)NC(=O)[C@H](CCCCN)NC(=O)[C@H](CC(=O)O)NC(=O)[C@H](CC(N)=O)NC(=O)[C@H](CC(=O)O)NC(=O)[C@@H]2CCCN2C1=O` [compound 411] (H-DCLGFMRKCIPDNDKCCRPNLVCSRTHKWCKYV[2Pal]-NH2; disulfide 2-17, 9-23, 16-30) were 5.82 µM, 4.83 µM and 8.16 µM.
In the case of `CC[C@H](C)[C@@H]1NC(=O)[C@@H]2CSSC[C@@H]3NC(=O)[C@H](C(C)C)NC(=O)[C@H](CC(C)C)NC(=O)[C@H](CC(N)=O)NC(=O)[C@@H]4CCCN4C(=O)[C@H](CCCNC(=N)N)NC(=O)[C@H](CSSC[C@H](NC(=O)[C@@H](N)CC(=O)O)C(=O)N[C@@H](CC(C)C)C(=O)NCC(=O)N[C@@H](Cc4ccccc4)C(=O)N[C@@H](CCSC)C(=O)N[C@@H](CCCNC(=N)N)C(=O)N[C@@H](CCCCN)C(=O)N2)NC(=O)[C@H](CSSC[C@@H](C(=O)N[C@@H](CCCCN)C(=O)N[C@@H](Cc2ccc(O)cc2)C(=O)N[C@H](C(=O)N[C@@H](Cc2ccccc2)C(=O)N[C@@H](Cc2ccc(C(=O)O)cc2)C(N)=O)C(C)C)NC(=O)[C@H](Cc2c[nH]c4ccccc24)NC(=O)[C@H](CCCCN)NC(=O)[C@H](Cc2c[nH]cn2)NC(=O)[C@H]([C@@H](C)O)NC(=O)[C@H](CCCNC(=N)N)NC(=O)[C@H](CO)NC3=O)NC(=O)[C@H](CCCCN)NC(=O)[C@H](CC(=O)O)NC(=O)[C@H](CC(N)=O)NC(=O)[C@H](CC(=O)O)NC(=O)[C@@H]2CCCN2C1=O` [compound 413], the IC50 was found to be 1.15 µM on hNav1.7 (use-dependent, read-out: IWQ Use Nav1.7 (μm)); 5.35 µM at hNav1.3 (use-dependent); 8.65 µM at hNav1.5 (use-dependent).
